Test results: the supplement of paper PMC10307832

Tests used:
Assay in all cases: relative viability (nuclei count vs DMSO), 5 days (fraction); higher = more cells survive
[1] = compound: C[C@@H](C(=O)N[C@@H](C1CCCCC1)C(=O)N2CCC[C@H]2C(=O)N[C@@H]3[C@@H](CC4=CC=CC=C34)OCC#CC#CCO[C@@H]5CC6=CC=CC=C6[C@@H]5NC(=O)[C@@H]7CCCN7C(=O)[C@H](C8CCCCC8)NC(=O)[C@H](C)NC)NC [AZD5582] + O=C(CCCCCCC(=O)Nc1ccccc1)NO [Vorinostat] (partner 1 µM)
In short: (§1)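 Cells from lung cancer lines were seeded into 1536-well plates and, one day later, dosed by pin tool. Treatments were either a single drug or a fixed dose of an anchor drug with five library-drug doses (not always all listed) in √10 steps. After 5 days, nuclei were stained in a one-step fixation (final 0.05% Triton X-100, 1% formaldehyde, 1 ug/ml Hoechst) and counted on 4× images, and relative viability is the treated-to-vehicle nuclei ratio, as the median of duplicate plates.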

[2] = compound: Cn1nnc2c(C(N)=O)ncn2c1=O [Temozolomide] + O=C(CCCCCCC(=O)Nc1ccccc1)NO [Vorinostat] (partner 1 µM)
In short: as §1

[3] = compound: C[C@@H](C(=O)N[C@@H](C1CCCCC1)C(=O)N2CCC[C@H]2C(=O)N[C@@H]3[C@@H](CC4=CC=CC=C34)OCC#CC#CCO[C@@H]5CC6=CC=CC=C6[C@@H]5NC(=O)[C@@H]7CCCN7C(=O)[C@H](C8CCCCC8)NC(=O)[C@H](C)NC)NC [AZD5582] + N=C(N)NC(=N)NCCc1ccccc1 [Phenformin] (partner 250 µM)
In short: as §1

[4] = compound: Cn1nnc2c(C(N)=O)ncn2c1=O [Temozolomide] + CS(=O)(=O)CCNCc1ccc(-c2ccc3ncnc(Nc4ccc(OCc5cccc(F)c5)c(Cl)c4)c3c2)o1 [Lapatinib] (partner 2 µM)
In short: as §1

Cell Line	relative viability ([1]; first compound 0.001581 µM)	relative viability ([1]; first compound 0.005 µM)	relative viability ([1]; first compound 0.01581 µM)	relative viability ([1]; first compound 0.05 µM)	relative viability ([2]; first compound 0.2 µM)	relative viability ([2]; first compound 0.6325 µM)	relative viability ([2]; first compound 2 µM)	relative viability ([2]; first compound 6.325 µM)	relative viability ([2]; first compound 20 µM)	relative viability ([3]; first compound 0.001581 µM)	relative viability ([3]; first compound 0.005 µM)	relative viability ([3]; first compound 0.05 µM)	relative viability ([4]; first compound 0.6325 µM)	relative viability ([4]; first compound 2 µM)	relative viability ([4]; first compound 6.325 µM)	relative viability ([4]; first compound 20 µM)	relative viability ([3]; first compound 0.01581 µM)	relative viability ([4]; first compound 0.2 µM)
NCI-H322M	0.924	1.01	0.97	1.17	0.93	0.931	1.05	0.899	0.761	0.776	0.996	0.872	0.568	0.574	0.599	0.535	–	–
PC-14	0.636	0.881	0.406	0.687	0.74	0.923	0.693	0.768	0.0952	0.556	0.5	0.511	0.321	0.396	0.343	0.297	0.353	0.318
NCI-H460	0.655	0.686	0.697	1.01	0.67	0.694	0.706	0.709	0.685	0.485	0.524	0.611	1.03	1.12	1	1.24	0.487	1.23
SK-LU-1	0.7	0.505	0.824	0.292	0.89	0.769	0.713	0.505	0.421	0.362	0.342	0.279	0.906	0.803	0.377	0.407	0.508	1.08
H3255	0.831	0.976	0.722	0.48	–	0.793	0.77	0.535	0.23	0.392	0.326	0.353	0.243	0.233	0.376	0.241	0.34	–
NCI-H1355	0.568	0.711	0.535	0.596	0.6	0.638	0.638	0.624	0.583	0.416	0.426	0.387	1.01	0.974	1.02	0.99	0.381	1.06
NCI-H661	0.742	0.786	0.806	0.762	0.862	0.789	0.849	0.783	0.691	0.268	0.271	0.267	0.599	0.506	0.433	0.508	0.269	–
NCI-H2170	0.683	0.834	0.787	0.91	–	0.763	0.631	0.461	0.288	0.38	0.455	0.409	0.28	0.295	0.264	0.247	0.36	–
SK-MES-1	1.08	1.19	1.02	1.26	1.41	1.12	1.11	1.19	1.12	0.6	0.678	0.655	0.466	0.463	0.505	0.458	0.649	0.478
EPLC-272H	–	–	0.429	0.074	0.386	0.545	0.527	0.407	0.508	0.0525	–	0.0492	1.05	1.01	0.798	0.858	0.233	1.12
NCI-H596	0.506	–	0.629	0.527	0.683	0.652	0.58	0.585	0.689	–	–	0.217	1.11	1.26	0.929	1.2	0.764	1.3
201T	1.05	1.11	0.919	1.22	0.942	0.939	1.04	0.91	0.867	0.459	0.478	0.579	1.06	1.03	1.02	1.03	0.406	1.07
LU99A	0.503	0.482	0.466	0.591	0.501	0.548	0.419	0.388	0.551	0.785	0.927	0.997	1.03	0.977	0.87	0.966	0.819	1.13
CAL-12T	0.533	0.703	0.644	0.754	0.889	0.881	0.885	0.781	0.628	0.354	0.27	0.222	0.585	0.601	0.607	0.8	0.408	–
NCI-H2126	0.817	0.84	0.47	0.704	0.632	0.761	0.817	0.752	0.624	0.489	0.567	0.512	0.771	0.793	0.771	0.797	0.497	0.82
BEN	0.53	0.568	0.591	0.555	0.567	0.558	0.652	0.58	0.552	0.278	0.249	0.27	0.692	0.66	0.633	0.467	0.301	0.641
NCI-H2405	1.04	1.1	0.88	1.11	1.25	1.08	1.05	0.99	0.995	0.375	0.469	0.473	1.08	1.21	0.921	1.05	0.327	1.12
NCI-H727	1.06	1.13	1.01	1.16	–	1.15	1.31	1.16	1.06	0.518	1.28	0.673	0.804	0.865	0.665	0.693	0.632	0.907
